In PubChem BioAssay AID330 (DTP/NCI, 2004):
Values joined by “and” are separate entries in the source; they are usually repeats but may differ in a detail not shown here. Identical values can stand only once. Toxic doses and inconclusive results are not listed. The calls were made as follows: active = survival T/C of 150% or more; inactive = T/C below 125% in these data. Peptide text beside a SMILES is read from it.

System: P388 leukemia ip, CD2F1 mice, survival T/C
Test: NCI In Vivo Anticancer Drug Screen. Data for tumor model P388 Leukemia (intraperitoneal) in CD2F1 (CDF1) mice
Details: endpoint: median survival time, higher = longer survival
Procedure, shortened: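 Mice carrying the transplanted tumor received test compound or vehicle. Survival was recorded in each group, and the value is the treated-group measurement divided by that of the vehicle-treated control group.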

[1] = dose: 12.5 mg/kg/injection, schedule: Q01DX005 (ip), vehicle: saline
[2] = dose: 25.0 mg/kg/injection, schedule: Q01DX005 (ip), vehicle: saline
[3] = dose: 50.0 mg/kg/injection, schedule: Q01DX005 (ip), vehicle: saline with Tween-80
[4] = dose: 100.0 mg/kg/injection, schedule: Q01DX005 (ip), vehicle: saline with Tween-80
[5] = dose: 60.0 mg/kg/injection, schedule: Q01DX005 (ip), vehicle: saline with Tween-80
[6] = dose: 120.0 mg/kg/injection, schedule: Q01DX005 (ip), vehicle: saline with Tween-80
[7] = dose: 50.0 mg/kg/injection, schedule: Q01DX005 (ip), vehicle: Klucel (hydroxypropylcellulose) (HPC)
[8] = dose: 100.0 mg/kg/injection, schedule: Q01DX005 (ip), vehicle: Klucel (hydroxypropylcellulose) (HPC)
[9] = dose: 50.0 mg/kg/injection, schedule: Q01DX009 (ip), vehicle: saline
[10] = dose: 100.0 mg/kg/injection, schedule: Q01DX009 (ip), vehicle: saline
[11] = dose: 200.0 mg/kg/injection, schedule: Q01DX009 (ip), vehicle: saline
[12] = dose: 240.0 mg/kg/injection, schedule: Q01DX005 (ip), vehicle: saline with Tween-80
[13] = dose: 12.5 mg/kg/injection, schedule: Q01DX009 (ip), vehicle: Klucel (hydroxypropylcellulose) (HPC)
[14] = dose: 25.0 mg/kg/injection, schedule: Q01DX009 (ip), vehicle: Klucel (hydroxypropylcellulose) (HPC)
[15] = dose: 50.0 mg/kg/injection, schedule: Q01DX009 (ip), vehicle: Klucel (hydroxypropylcellulose) (HPC)
[16] = dose: 50.0 mg/kg/injection, schedule: Q01DX009 (ip), vehicle: saline with Tween-80
[17] = dose: 12.5 mg/kg/injection, schedule: Q01DX009 (ip), vehicle: saline with Tween-80
[18] = dose: 200.0 mg/kg/injection, schedule: Q01DX005 (ip), vehicle: Klucel (hydroxypropylcellulose) (HPC)
[19] = dose: 100.0 mg/kg/injection, schedule: Q04DX003 (ip), vehicle: saline with Tween-80
[20] = dose: 200.0 mg/kg/injection, schedule: Q04DX003 (ip), vehicle: saline with Tween-80

Measured: T/C

COc1ccc(/C=C(\C)[N+](=O)[O-])cc1OC
inactive: dose: 12.5 mg/kg/injection, schedule: Q01DX009 (ip), vehicle: distilled water + Tween-80 100 % of control | dose: 25.0 mg/kg/injection, schedule: Q01DX009 (ip), vehicle: distilled water + Tween-80 121 % of control | dose: 50.0 mg/kg/injection, schedule: Q01DX009 (ip), vehicle: distilled water + Tween-80 115 % of control | dose: 100.0 mg/kg/injection, schedule: Q01DX009 (ip), vehicle: distilled water + Tween-80 115 % of control

CCCCN(CCCC)CC(O)c1ccc(F)c2ccccc12 (stereo not drawn)
inactive: [1] 96 % of control | [2] 105 % of control | [3] 113 % of control | dose: 50.0 mg/kg/injection, schedule: Q01DX005 (ip), vehicle: saline 99 % of control | [4] 97 % of control

C=CCN(CC=C)C(N)=Nc1ccccc1Cl
inactive: dose: 6.25 mg/kg/injection, schedule: Q01DX005 (ip), vehicle: saline 103 % of control | [1] 103 % of control | [2] 103 % of control

C=CCC12C[C@H](OC)[C@@H](O)[C@](OC)(C1O)[C@H](c1ccc3c(c1)OCO3)[C@H]2C (stereo partly drawn)
inactive: dose: 16.25 mg/kg/injection, schedule: Q01DX005 (ip), vehicle: Klucel (hydroxypropylcellulose) (HPC) 108 % of control | dose: 32.5 mg/kg/injection, schedule: Q01DX005 (ip), vehicle: Klucel (hydroxypropylcellulose) (HPC) 98 % of control | dose: 65.0 mg/kg/injection, schedule: Q01DX005 (ip), vehicle: Klucel (hydroxypropylcellulose) (HPC) 99 % of control | dose: 130.0 mg/kg/injection, schedule: Q01DX005 (ip), vehicle: Klucel (hydroxypropylcellulose) (HPC) 89 % of control

COC(=O)C(=O)c1c(C(=O)OC)nc2nnc(N)n2c1-c1cccc([N+](=O)[O-])c1
inactive: dose: 15.0 mg/kg/injection, schedule: Q01DX005 (ip), vehicle: saline with Tween-80 92 % of control | dose: 30.0 mg/kg/injection, schedule: Q01DX005 (ip), vehicle: saline with Tween-80 91 % of control | [5] 88 % of control | [6] 86 % of control

O=S(=O)(F)C(Br)(Br)S(=O)(=O)F
inactive: [7] 97 % of control | [8] 97 % of control

CNC(=S)NNC1=NC(=S)NC1(C)C
inactive: [9] 98 % of control | [10] 103 % of control | [11] 101 % of control

CCO/C=C1/N=C(c2ccccc2Cl)OC1=O
inactive: [5] 106 % of control | [6] 118 % of control | [12] 98 % of control

COc1cccc2c(NCCCCCO[N+](=O)[O-])cc[n+](C)c12
inactive: [13] 104 % of control | [14] 110 % of control | [15] 107 % of control

CCn1c2ccccc2c2cc(N=Nc3cc4ccccc4[nH]3)ccc21
inactive: [16] 115 % of control | dose: 100.0 mg/kg/injection, schedule: Q01DX009 (ip), vehicle: saline with Tween-80 113 % of control | dose: 200.0 mg/kg/injection, schedule: Q01DX009 (ip), vehicle: saline with Tween-80 113 % of control

N#CC1(C#N)C(CCl)C1(C#N)C#N
inactive: [17] 98 % of control | dose: 25.0 mg/kg/injection, schedule: Q01DX009 (ip), vehicle: saline with Tween-80 94 % of control | [16] 98 % of control | [9] 102 % of control

CC(C)(SSC(C)(C)C1NC(=O)NC1=O)C1NC(=O)NC1=O (stereo not drawn)
inactive: dose: 6.25 mg/kg/injection, schedule: Q01DX005 (ip), vehicle: Klucel (hydroxypropylcellulose) (HPC) 102 % of control | dose: 12.5 mg/kg/injection, schedule: Q01DX005 (ip), vehicle: Klucel (hydroxypropylcellulose) (HPC) 99 % of control | dose: 25.0 mg/kg/injection, schedule: Q01DX005 (ip), vehicle: Klucel (hydroxypropylcellulose) (HPC) 98 % of control

Cc1ccc2nc3[nH]c(=O)[nH]c(=O)c3c(C(N)=O)c2c1
inactive: [7] 100 % of control | [8] 94 % of control | [18] 94 % of control

O=C(Nc1cccc(Cl)c1)c1cc(N=Nc2ccc([N+](=O)[O-])cc2Cl)ccc1O
inactive: [13] 104 % of control | [17] 105 % of control | [14] 113 % of control | dose: 25.0 mg/kg/injection, schedule: Q04DX003 (ip), vehicle: Klucel (hydroxypropylcellulose) (HPC) 107 % of control | [15] 113 % of control | dose: 50.0 mg/kg/injection, schedule: Q04DX003 (ip), vehicle: Klucel (hydroxypropylcellulose) (HPC) 107 % of control | dose: 100.0 mg/kg/injection, schedule: Q01DX009 (ip), vehicle: Klucel (hydroxypropylcellulose) (HPC) 118 % of control | dose: 100.0 mg/kg/injection, schedule: Q04DX003 (ip), vehicle: Klucel (hydroxypropylcellulose) (HPC) 115 % of control | dose: 200.0 mg/kg/injection, schedule: Q04DX003 (ip), vehicle: Klucel (hydroxypropylcellulose) (HPC) 115 % of control

COc1ccc(Nc2c3sc4cc(OC)ccc4nc-3c3ccccc3c2=O)cc1
inactive: [3] 94 % of control | [4] 92 % of control | dose: 200.0 mg/kg/injection, schedule: Q01DX005 (ip), vehicle: saline with Tween-80 94 % of control

O=C(O)c1cccc2nc3cc4c(c(C(=O)O)c3nc12)OCO4
inactive: [5] 93 % of control | [6] 99 % of control | [12] 105 % of control

CCCC1N=C(N)N=C(N)N1c1ccc(OC)cc1 (stereo not drawn)
inactive: dose: 12.5 mg/kg/injection, schedule: Q01DX005 (ip), vehicle: saline with Tween-80 100 % of control | dose: 25.0 mg/kg/injection, schedule: Q01DX005 (ip), vehicle: saline with Tween-80 103 % of control | [3] 101 % of control and 106 % of control

C[P+]12CN3CN(CN(C3)C1)C2
inactive: [9] 107 % of control | [10] 107 % of control | [11] 101 % of control

Cn1c(=O)c2nc3n(c2n(C)c1=O)CCC(C)(c1ccccc1)O3 (stereo not drawn)
inactive: [5] 96 % of control | [6] 91 % of control | [12] 91 % of control

c1ccc2c(C3CCCN4CCCCC34)c[nH]c2c1 (stereo not drawn)
inactive: dose: 12.5 mg/kg/injection, schedule: Q04DX002 (ip), vehicle: saline with Tween-80 105 % of control | dose: 25.0 mg/kg/injection, schedule: Q04DX002 (ip), vehicle: saline with Tween-80 102 % of control | dose: 50.0 mg/kg/injection, schedule: Q04DX002 (ip), vehicle: saline with Tween-80 100 % of control

C=CCC(=C)C(=O)OC
inactive: dose: 12.5 mg/kg/injection, schedule: Q01DX009 (ip), vehicle: water 103 % of control | dose: 25.0 mg/kg/injection, schedule: Q01DX009 (ip), vehicle: water 104 % of control | dose: 50.0 mg/kg/injection, schedule: Q01DX009 (ip), vehicle: water 102 % of control | dose: 100.0 mg/kg/injection, schedule: Q01DX009 (ip), vehicle: water 102 % of control | dose: 200.0 mg/kg/injection, schedule: Q01DX009 (ip), vehicle: water 103 % of control

Nc1nnc2nc(CC(=O)c3ccc(F)cc3)c(CC(=O)c3ccc(F)cc3)nn12
inactive: dose: 60.0 mg/kg/injection, schedule: Q01DX005 (ip), vehicle: saline 104 % of control | dose: 120.0 mg/kg/injection, schedule: Q01DX005 (ip), vehicle: saline 106 % of control | dose: 240.0 mg/kg/injection, schedule: Q01DX005 (ip), vehicle: saline 100 % of control

O=C(CC(=O)c1ccc(Cl)cc1)c1ccc(Cl)cc1
inactive: dose: 50.0 mg/kg/injection, schedule: Q04DX003 (ip), vehicle: saline with Tween-80 100 % of control | [19] 100 % of control | [20] 98 % of control | dose: 400.0 mg/kg/injection, schedule: Q04DX003 (ip), vehicle: saline with Tween-80 93 % of control

Cc1cc2c(cc1C)NC(C)CC(=O)N2 (stereo not drawn)
inactive: [19] 109 % of control | [20] 95 % of control

NC(N)=NCCCC(N)C(=O)NC(CCC(=O)O)C(=O)O (stereo not drawn) (H-Arg-Glu-OH; configuration not given here)
inactive: dose: 25.0 mg/kg/injection, schedule: Q01DX009 (ip), vehicle: saline 91 % of control | [7] 100 % of control | [9] 97 % of control | [8] 100 % of control | [10] 94 % of control | [18] 100 % of control | [11] 103 % of control | dose: 400.0 mg/kg/injection, schedule: Q01DX009 (ip), vehicle: saline 88 % of control
